According to paper PMC6681416, “Novel Derivatives of Deoxycholic Acid Bearing Linear Aliphatic Diamine and Aminoalcohol Moieties and their Cyclic Analogs at the C3 Position: Synthesis and Evaluation of Their In Vitro Antitumor Potential” (Molecules, 2019):
Where two headings read alike, the source gives them in different places.

Assays:
HuTu-80 cells [1] = experiment: cells; type: cell-based; details: ratio IC50 hFF3 / IC50 HuTu-80
From the text: (§1) According to our previous data and data published by other research groups, chemical transformations of bile acids can greatly improve their antitumor potential. Thus, as the first step of evaluation of the biological activities of our novel DCA derivatives we assessed their effects on tumor cell viability. The cytotoxicity of the compounds was investigated with respect to a panel of cultured cell lines, including human duodenal HuTu-80, hepatocellular HepG2, cervical KB-3-1 and lung A549 carcinomas as well as murine macrophage RAW264.7 and non-transformed human fibroblasts hFF3 by MTT assay.
(§2) Human duodenal carcinoma HuTu-80 cells, human hepatocellular carcinoma HepG2 cells, human cervical carcinoma KB-3-1 cells, human lung carcinoma A549 cells were obtained from the Russian Cell Culture Collection (Institute of Cytology, RAS, St. Petersburg, Russia). Non-transformed human fibroblasts hFF3 were kindly provided by Dr. Olga Koval (Institute of Chemical Biology and Fundamental Medicine, SB RAS, Novosibirsk, Russia). RAW264.7 macrophages were kindly provided by Prof. Dr. Dmitry Kuprash (Engelhardt Institute of Molecular Biology, RAS, Moscow, Russia). The cells were cultured in DMEM (Sigma-Aldrich Inc., St. Louis, MO, USA) supplemented with 10% (v/v) heat-inactivated fetal bovine serum (FBS) (BioloT, St. Petersburg, Russia), 100 U/mL penicillin (ICN Biomedicals Inc., Costa Mesa, CA, USA), 100 µg/mL streptomycin and 0.25 µg/mL amphotericin; additionally, in the case of RAW264.7 cells, concentration of glucose in the medium was increased up to 4.5 mg/mL. The cells were incubated at 37 °C in 5% CO2 and 95% air (hereafter referred to as standard conditions). DCA derivatives were dissolved in DMSO to yield stock solutions of 10 mmol/L and stored at −20 °C prior to use.
(§3) Cells were seeded in triplicate in 96-well plates at a density of 5 × 10^3 (HuTu-80, HepG2, KB-3-1, hFF3), 10^4 (A549) or 5 × 10^4 (RAW264.7) cells per well. Cells were incubated under standard conditions for 24 h and then they were treated with varying doses of investigated derivatives for subsequent 24 h. Then 10 µL of MTT solution (5 mg/mL) were added to each wells and cells were incubated for an additional 2 h under standard conditions. The crystals of formazan forming within live cells were solubilized with DMSO and the absorbance was measured in a Multiscan RC plate reader (Thermo LabSystems, Helsinki, Finland) at a test and reference wavelengths of 570 nm and 620 nm, respectively. […] To perform SAR analysis, hierarchical clustering of compounds based on their IC50 values was fulfilled with Euclidean distance by using the Morpheus tool (https://software.broadinstitute.org/morpheus/), a platform designed for visualization and analysis of data in a matrix format. Heatmap, containing compounds’ SI values, were constructed by using the Excel 2010 software (Microsoft, Redmond, WA, USA). In order to reveal whether ROS participate in the induction of cell death by compound 9, HuTu-80 cells cultured in 96-well plate were pretreated by NAC at 2 mM for 1 h. Thereafter, the medium was replaced by fresh medium with compound 9 at 8 µM and the cells were incubated with subsequent 24 h under standard conditions. After this time period, the curves of cytotoxicity of compound 9 in the presence or absence of NAC were compared.

RAW264.7 macrophages = experiment: MTT cytotoxicity assay, RAW264.7; type: cell-based, murine; details: for IC50: Mus musculus, RAW264.7, MTT, 24 h, read-out: IC50 RAW264.7 (macrophage); for Selectivity index RAW264: ratio IC50 hFF3 / IC50 RAW264.7
From the text: as §1, §2, §3

[2] = tested on: NO synthesis by IFNγ-activated RAW264.7 cells; experiment: Inhibition of NO production by stimulated macrophages (Griess); type: cell-based, murine; details: Mus musculus, read-out: IC50NO
Method: RAW264.7 cells were seeded in triplicate in 96-well plates at a density of 5 × 10^4 cells/well and incubated under standard conditions for 24 h. The cells were treated with 20 ng/mL of murine recombinant IFNγ (GIBCO, Gaithersburg, MD, USA), with or without (control) compounds at various concentrations for 24 h. The level of NO production was evaluated by determining the nitrite concentration in culture medium with a Griess Reagent System (Promega, Madison, WI, USA). The IC50^NO value was calculated as the derivative concentration required to decrease NO production to 50% of the non-treated control.

HuTu-80 cells [3] = tested on: HuTu-80 cells; parameters: method as in PMID 28688958, PMID 26037611, PMID 28887170; details: MTT, 24 h; values marked by asterisk; ref [21],[22],[23]; read-out: IC50 HuTu-80 (duodenum); cited from earlier work
HepG2 cells [4] = tested on: HepG2 cells; parameters: method as in PMID 28688958, PMID 26037611, PMID 28887170; details: MTT, 24 h; values marked by asterisk; ref [21],[22],[23]; read-out: IC50 HepG2 (liver); cited from earlier work
KB-3-1 cells [5] = tested on: KB-3-1 cells; parameters: method as in PMID 28688958, PMID 26037611, PMID 28887170; details: MTT, 24 h; values marked by asterisk; ref [21],[22],[23]; read-out: IC50 KB3-1 (cervix); cited from earlier work
[6] = tested on: non-transformed human fibroblasts hFF3; parameters: method as in PMID 28688958, PMID 26037611, PMID 28887170; details: MTT, 24 h; values marked by asterisk; ref [21],[22],[23]; read-out: IC50 hFF3 (fibroblast); cited from earlier work
[7] = tested on: panel of cultured cell lines (HuTu-80, HepG2, KB-3-1, A549, RAW264.7, hFF3); parameters: method as in PMID 28688958, PMID 26037611, PMID 28887170; details: MTT, 24 h; summary of Table 1 values marked by asterisk; ref [21],[22],[23]; read-out: IC50, range or lowest value over tested cell lines; cited from earlier work
HepG2 cells [8] = experiment: MTT cytotoxicity assay, HepG2; type: cell-based, human; details: ratio IC50 hFF3 / IC50 HepG2
From the text: as §1, §2, §3

KB-3-1 cells [9] = experiment: MTT cytotoxicity assay, KB-3-1; type: cell-based, human; details: ratio IC50 hFF3 / IC50 KB-3-1
From the text: as §1, §2, §3

A549 cells [10] = experiment: MTT cytotoxicity assay, A549; type: cell-based, human; details: ratio IC50 hFF3 / IC50 A549
From the text: as §1, §2, §3

A549 cells [11] = tested on: A549 cells; parameters: method as in PMID 28688958, PMID 26037611, PMID 28887170; details: MTT, 24 h; values marked by asterisk; ref [21],[22],[23]; read-out: IC50 A549 (lung); cited from earlier work

Row | Compound | Selectivity index HuTu-80 (HuTu-80 cells [1]) | IC50 (RAW264.7 macrophages) | Selectivity index RAW264 (RAW264.7 macrophages) | IC50 ([2]; RAW264.7, 24 h) | IC50 (HuTu-80 cells [3]) | IC50 (HepG2 cells [4]) | IC50 (KB-3-1 cells [5]) | IC50 [6] | IC50 [7] | Selectivity index HepG-2 (HepG2 cells [8]) | Selectivity index KB-3-1 (KB-3-1 cells [9]) | Selectivity index A549 (A549 cells [10]) | IC50 (A549 cells [11]) | IC50 ([2]; 50% reduction in NO synthesis by IFNγ-activated RAW264.7 cells, 24 h)
1 | COC(=O)CC[C@@H](C)[C@H]1CCC2[C@@H]3CC[C@@H]4C[C@@]5(CC[C@]4(C)C3CC(=O)[C@@]21C)CO5 (stereo partly drawn) [Compound 1, methyl 3β-oxirane-12-oxo-5β-cholan-24-oate] | 1.6 | > 100 µM | <0.5 | 16.4 ± 0.9 µM | 17 ± 1.6 µM | 43.5 ± 1.9 µM | 27.9 ± 2.5 µM | 53.9 ± 3.3 µM | ≥ 17 µM |  |  |  |  | 
2 | COC(=O)CC[C@@H](C)[C@H]1CCC2[C@@H]3CC[C@@H]4C[C@](O)(CNCCN(C)C)CC[C@]4(C)C3CC(=O)[C@@]21C (some centres unmarked) [Compound 2] | 3.6 | 21.7 ± 0.87 µM | 1.2 | > 10 µM | 7.1 ± 0.6 µM | 8 ± 0.9 µM | 26.2 ± 0.8 µM | 25.4 ± 2.2 µM | 7.1 to 36 µM | 3.2 | 1 | 0.7 | 36 ± 0.7 µM | 
3 | COC(=O)CC[C@@H](C)[C@H]1CCC2[C@@H]3CC[C@@H]4C[C@](O)(CNCCCN(C)C)CC[C@]4(C)C3CC(=O)[C@@]21C (some centres unmarked) [Compound 3] | 2.2 | 6.7 ± 0.4 µM | 1 | > 10 µM | 3 ± 0.4 µM | 4 ± 0.2 µM | 5.9 ± 0.5 µM | 6.5 ± 0.5 µM | 3 to 6.8 µM | 1.6 | 1.1 | 1 | 6.8 ± 0.1 µM | 
4 | COC(=O)CC[C@@H](C)[C@H]1CCC2[C@@H]3CC[C@@H]4C[C@](O)(CN5CCN(C)CC5)CC[C@]4(C)C3CC(=O)[C@@]21C (some centres unmarked) [Compound 4] | 6.9 | 20.4 ± 0.4 µM | 1.6 | > 10 µM | 4.7 ± 0.2 µM | 3.6 ± 0.7 µM | 23.5 ± 1.7 µM | 32.5 ± 1.4 µM |  | 9 | 1.4 | 1.5 | 21.6 ± 2.5 µM | 
5 | CCN(CC)CCNC[C@]1(O)CC[C@]2(C)C3CC(=O)[C@@]4(C)C(CC[C@@H]4[C@H](C)CCC(=O)OC)[C@@H]3CC[C@@H]2C1 (some centres unmarked) [Compound 5] | 2.2 | 20.9 ± 2.1 µM | 0.4 | > 10 µM | 3.3 ± 0.1 µM | 4.3 ± 0.3 µM | 21.6 ± 3.4 µM | 7.4 ± 1 µM | 3.3 to 25.5 µM | 1.7 | 0.3 | 0.3 | 25.5 ± 0.8 µM | 
6 | CCN1CCN(C[C@]2(O)CC[C@]3(C)C4CC(=O)[C@@]5(C)C(CC[C@@H]5[C@H](C)CCC(=O)OC)[C@@H]4CC[C@@H]3C2)CC1 (some centres unmarked) [Compound 7] | 2 | 37.8 ± 1.7 µM | 0.5 | > 10 µM | 8.3 ± 1.2 µM | 3.8 ± 0.3 µM | 28.6 ± 0.5 µM | 17.4 ± 1.6 µM |  | 4.6 | 0.6 | 0.7 | 23.5 ± 3 µM | 
7 | COC(=O)CC[C@@H](C)[C@H]1CC[C@H]2[C@@H]3CC[C@@H]4C[C@H](O)CC[C@]4(C)[C@H]3CC(=O)[C@]12C [Compound 11, methyl 3α-hydroxy-12-oxo-5β-cholan-24-oate] |  | > 100 µM |  | 50.9 ± 5.9 µM | > 100 µM | 25.7 ± 3.6 µM | > 100 µM | > 100 µM | ≥ 25.7 µM | >3.9 |  | 1 |  | 
8 | C[C@H](CCC(=O)O)[C@H]1CC[C@H]2[C@@H]3CC[C@@H]4C[C@H](O)CC[C@]4(C)[C@H]3C[C@H](O)[C@]12C [DCA, deoxycholic acid] |  | > 100 µM |  |  | 82.9 ± 1.9 µM | > 100 µM | > 100 µM | > 100 µM | ≥ 82.9 µM |  |  | 1 |  | 83.6 ± 1.6 µM
